Converted amounts (≈) assume the structure as drawn.
Legend:
Human sEH = biological target: T1, Human sEH (Homo sapiens, UniProt P34913); test: Inhibition of human sEH, fluorescent substrate assay; type: biochemical
T1 sequence (P34913 1-555): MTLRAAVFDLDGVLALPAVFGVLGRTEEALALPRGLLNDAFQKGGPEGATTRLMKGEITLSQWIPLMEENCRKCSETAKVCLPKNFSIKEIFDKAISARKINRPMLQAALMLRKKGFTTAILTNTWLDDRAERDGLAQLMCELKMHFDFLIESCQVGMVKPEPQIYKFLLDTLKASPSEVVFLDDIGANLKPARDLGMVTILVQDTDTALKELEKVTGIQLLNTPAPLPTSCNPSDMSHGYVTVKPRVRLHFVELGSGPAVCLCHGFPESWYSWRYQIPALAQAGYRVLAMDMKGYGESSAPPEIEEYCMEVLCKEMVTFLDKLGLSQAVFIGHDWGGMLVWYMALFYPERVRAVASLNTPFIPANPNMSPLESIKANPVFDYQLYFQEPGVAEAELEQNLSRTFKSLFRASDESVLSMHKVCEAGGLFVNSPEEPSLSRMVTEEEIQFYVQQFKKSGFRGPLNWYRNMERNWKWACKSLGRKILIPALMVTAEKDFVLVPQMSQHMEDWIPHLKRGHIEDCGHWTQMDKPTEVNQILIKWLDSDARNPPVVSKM

[1] = In vitro metabolic stability in human liver microsomes; conditions: for Stability (% remaining): human liver microsomal protein 0.125 mg, NADPH generating system, 37°C, 60 min, parent by LC-MS/MS, triplicate; for fold improved metabolic stability compared to compound 6: versus compound 6; for fold lower stability compared to compound 13: versus compound 13
Solubility in water = type: physicochemical; conditions: for fold improved water solubility compared to alkyl substituted inhibitors (4 or 6): versus compounds 4 or 6

| Compound | Stability (% remaining) [1] | fold improved metabolic stability compared to compound 6 ([1]; human liver microsomes) | fold lower stability compared to compound 13 ([1]; human liver microsomes) | further results |
| --- | --- | --- | --- | --- |
| CCOCCOCCOC(=O)CCCNC(=O)NC12CC3CC(CC(C3)C1)C2 [Compound 8] | 10 % remaining | > 2.5 fold | 3 fold | fold reduction in inhibition compared to compounds 4, 5 and 6 (Human sEH; versus compounds 4, 5 and 6): 7–17 fold |
| O=C(NC1CCCC(C(=O)O)C1)NC12CC3CC(CC(C3)C1)C2 (stereo not drawn) [Compound 10, 3-(3-adamantan-1-yl-ureido)-cyclohexylcarboxylic acid] | 95 % remaining | – | – | parent acid determined after microsomal incubation ([1]; human liver microsomes): > 95% |
| CCOCCOCC(OC(=O)C1CCCC(NC(=O)NC23CC4CC(CC(C4)C2)C3)C1)c1ccccc1 (stereo not drawn) [Compound 13] | 32 % remaining | – | – | fold improved water solubility compared to alkyl substituted inhibitors (4 or 6) (Solubility in water): 20–45 fold; fold improved stability compared to compound 9 ([1]; human liver microsomes, versus compound 9): ~2 fold |
| O=C(O)CCCNC(=O)NC12CC3CC(CC(C3)C1)C2 [Compound 3, 4-(3-adamantan-1-yl-ureido)-butyric acid] | 97 % remaining | – | – | solubility at 24 h (Solubility in water; sodium phosphate buffer, pH 7.4): 7 µg/mL (≈ 25 µM); parent acid determined after microsomal incubation ([1]; human liver microsomes): > 95% |
| CCCCC(CC)OC(=O)C1CCCC(NC(=O)NC23CC4CC(CC(C4)C2)C3)C1 (stereo not drawn) [Compound 12] | 10 % remaining | 2.5 fold | 3 fold | – |
| CCCCC(C)OC(=O)CCCNC(=O)NC12CC3CC(CC(C3)C1)C2 (stereo not drawn) [Compound 5] | – | – | – | fold improvement in inhibition potency compared to compound 4 (Human sEH; versus compound 4): 2.5 fold |
| CCCCCOC(=O)CCCNC(=O)NC12CC3CC(CC(C3)C1)C2 [Compound 4] | <1 % remaining | – | – | metabolism in human liver microsomal incubation ([1]; human liver microsomes): all metabolized to the corresponding butyric acid |
| CCOCCOCC(OC(=O)CCCNC(=O)NC12CC3CC(CC(C3)C1)C2)c1ccccc1 (stereo not drawn) [Compound 9] | 14 % remaining | > 2.5 fold | ~2 fold | fold improved water solubility compared to alkyl substituted inhibitors (4 or 6) (Solubility in water): 20–45 fold |
| CCCCC(C#N)OC(=O)CCCNC(=O)NC12CC3CC(CC(C3)C1)C2 (stereo not drawn) [Compound 7] | – | – | – | fold decrease in inhibition potency in comparison with methyl (5) or ethyl (6) (Human sEH; versus compounds 5 or 6): 3 fold |
| CCCCC(CC)OC(=O)CCCNC(=O)NC12CC3CC(CC(C3)C1)C2 (stereo not drawn) [Compound 6] | 4 % remaining | – | – | – |

Source: article PMC3432147 (Bioorganic & medicinal chemistry letters, 2012)
